Measured values as given in US20240150293A1, “SPIROCYCLOHEXANE DERIVATIVES, PHARMACEUTICAL COMPOSITIONS CONTAINING THEM AND THEIR USES AS ANTI-APOPTOTIC INHIBITORS” (LES LABORATOIRES SERVIER, priority 2021, published 2024).
Like-named read-outs stand apart in the source and are kept apart here.

Experiments:
[1] = tested on: H929 multiple myeloma tumor line; assay: In vitro cytotoxicity, MTT assay (Example B, Method A); assay type: cell-based; details: H929 cells, 48 hours exposure, read-out: C50
Description: The cytotoxicity studies were carried out on the H929 multiple myeloma tumor line.
The cells are distributed onto microplates and exposed to the test compounds for 48 hours. The cell viability is then quantified by a colorimetric assay, the Microculture Tetrazolium Assay (Carmichael et al, Cancer Res. 1987, 47, 939-942).
The results are expressed in C50 which means concentration corresponding to […] of effect/inhibition.

[2] = biological target: Cy5-labelled Mcl1 (amino acids 171-321) C286S protein (UniProtKB Q07820) (Homo sapiens (Human), UniProt Q07820, C286S); assay: Inhibition of Mcl-1 by the fluorescence quenching assay (Example A, Method B); assay type: binding
Method in brief: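 Eleven-point compound series incubated 2 h at room temperature with 1 nM Cy5-tagged protein and quencher-labelled PUMA peptide at 10, 20 or 400 nM in HEPES/NaCl/Tween 20, pH 7.4, 5% DMSO. IC50 for 50% fluorescence increase by 4-parameter fit, then Ki derived (complete cKi or estimated eKi).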

Cy5-labelled Mcl1 (amino acids 171-321) C286S protein, sequence (Q07820 171-321 C286S): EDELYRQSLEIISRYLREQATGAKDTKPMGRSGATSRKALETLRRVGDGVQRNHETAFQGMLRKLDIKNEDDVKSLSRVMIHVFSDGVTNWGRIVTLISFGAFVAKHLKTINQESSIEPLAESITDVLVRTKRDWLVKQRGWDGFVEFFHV

SMILES | IC50 ([1]; Homo sapiens, NCI-H929, 48 h) | Ki [2] | IC50 [1]
C[C@@H](COc1ccnc2ccsc12)CC1=Cc2ccccc2[C@]12CC[C@@](Nc1cccc(Cl)c1)(C(=O)O)CC2 [Example 589, (1r,4R)-4-(3-chloroanilino)-2′-{(2R)-2-methyl-3-[(thieno[3,2-b]pyridin-7-yl)oxy]propyl}spiro[cyclohexane-1,1′-indene]-4-carboxylic acid] | 694 nM | 8.39 nM | 
CC[C@@H]1CCCc2nccc(OC[C@H](C)C[C@H]3Cc4ccccc4[C@]34CC[C@@](Nc3cccc(Cl)c3)(C(=O)O)CC4)c21 [Example 657, (1r,2′S,4S)-4-(3-chloroanilino)-2′-[(2R)-3-{[(5R)-5-ethyl-5,6,7,8-tetrahydroquinolin-4-yl]oxy}-2-methylpropyl]-2′,3′-dihydrospiro[cyclohexane-1,1′-indene]-4-carboxylic acid] | 139 nM | 2.94 nM | 
C[C@@H](COc1ccnc2c1[C@@H](C)CCC2)C[C@H]1Cc2ccccc2[C@]12CC[C@@](Nc1cccc(Cl)c1)(C(=O)O)CC2 [Example 654, (1r,2′S,4S)-4-(3-chloroanilino)-2′-[(2R)-2-methyl-3-{[(5S)-5-methyl-5,6,7,8-tetrahydroquinolin-4-yl]oxy}propyl]-2′,3′-dihydrospiro[cyclohexane-1,1′-indene]-4-carboxylic acid] | 765 nM | 5.2 nM | 
O=C(O)[C@]1(Nc2cccc(Cl)c2)CC[C@@]2(CC1)c1ccccc1C[C@@H]2C[C@H](COc1ccnc2ccsc12)c1ccccc1 [Example 547, (1r,2′S,4S)-4-(3-chloroanilino)-2′-{(2S)-2-phenyl-3-[(thieno[3,2-b]pyridin-7-yl)oxy]propyl}-2′,3′-dihydrospiro[cyclohexane-1,1′-indene]-4-carboxylic acid] | 376 nM | 6.95 nM | 
C[C@@H](COc1ccnc2c1[C@@H](C)CC[C@H]2C)C[C@H]1Cc2ccccc2[C@]12CC[C@@](Nc1cccc(Cl)c1)(C(=O)O)CC2 (single isomer, unassigned) [Example 659, (1r,2′S,4S)-4-(3-chloroanilino)-2′-[(2R)-3-{[(5R*,8S*)-5,8-dimethyl-5,6,7,8-tetrahydroquinolin-4-yl]oxy}-2-methylpropyl]-2′,3′-dihydrospiro[cyclohexane-1,1′-indene]-4-carboxylic acid] |  | 5.73 nM | 559 nM
C[C@@H]1CCCc2nccc(OCC(CC3Cc4ccccc4[C@]34CC[C@@](Nc3cccc(Cl)c3)(C(=O)O)CC4)C(F)F)c21 (single isomer, unassigned) [Example 520] |  | 91.4 nM | 10400 nM
C[C@@H](COc1c[nH]c2ccccc12)C[C@H]1Cc2ccccc2[C@]12CC[C@@](Nc1cccc(Cl)c1)(C(=O)O)CC2 [Example 628, (1r,2′S,4S)-4-(3-chloroanilino)-2′-{(2R)-3-[(1H-indol-3-yl)oxy]-2-methylpropyl}-2′,3′-dihydrospiro[cyclohexane-1,1′-indene]-4-carboxylic acid] | 2400 nM | 69.9 nM | 
CC[C@@H](COc1ccncc1)C[C@H]1Cc2ccccc2[C@]12CC[C@@](Nc1cccc(Cl)c1)(C(=O)O)CC2 [Example 544, (1r,2′S,4S)-4-(3-chloroanilino)-2′-[(2R)-2-{[(pyridin-4-yl)oxy]methyl}butyl]-2′,3′-dihydrospiro[cyclohexane-1,1′-indene]-4-carboxylic acid] | 8320 nM | 22.4 nM | 
C[C@@H](COc1ccnc2c1[C@H](C)CCC2)CC1=Cc2ccc(CO)cc2[C@]12CC[C@@](Nc1cccc(Cl)c1)(C(=O)O)CC2 [Example 868, (1r,4R)-4-(3-chloroanilino)-6′-(hydroxymethyl)-2′-[(2R)-2-methyl-3-{[(5R)-5-methyl-5,6,7,8-tetrahydroquinolin-4-yl]oxy}propyl]spiro[cyclohexane-1,1′-indene]-4-carboxylic acid] | 231 nM | 0.19 nM | 
C[C@@H]1CCCc2nccc(OCC(CC3Cc4ccccc4[C@]34CC[C@@](Nc3cccc(Cl)c3)(C(=O)O)CC4)C(F)F)c21 (single isomer, unassigned) [Example 519] |  | 0.909 nM | 202 nM
